According to US9156783B2, “Compounds for treating proliferative disorders” (Synta Pharmaceuticals Corp., priority 2006, dated 2015):

System: inducible human Hsp70
Assay: Hsp70 RNA induction by quantitative PCR analysis in Ramos B cells
Assay type: cell-based
Settings: 500 nM compound, 6 hours; for % induction relative to Compound B: Compound B induction set to 100%; for fold induction at 0.5 µM: Homo sapiens, read-out: fold induction over DMSO
Description: The ability of the compounds of the invention to induce Hsp70 RNA induction by quantitative PCR analysis was examined. Ramos B cells were treated with 500 nM each compound for 6 hours and the RNA was isolated from the cells. Quantitative PCR was performed as described below:
Details for Quantitative PCR are as follows:
500 ng of RNA from each sample was used for cDNA synthesis using iScript cDNA Synthesis Kit (Biorad, Cat #170-8891). 1 ul of cDNA mixture was used with the iQ SYBR Green Supermix (Biorad, Cat#170-8882) to perform quantitative PCR in an iCycler machine (Biorad) using standard protocols. QPCR for each sample/time point was performed in duplicate. The following primers for inducible human Hsp70 and gapdh were used: […]
Ct values were obtained from the iCycler program and used in an equation (2^−ΔΔCT) for determining the amount of target relative to gapdh expression. This compares the relative expression of Hsp70 to the corresponding levels of gapdh in each sample. Duplicate wells were averaged. The amount of N-Malonyl-bis(N′-methyl-N′thiobenzoylhydrazide) (Compound B) induction of Hsp70 was set to 100% and the percent of induction of Hsp70 by the compounds of the invention was determined relative to 100%.

| SMILES | % induction relative to Compound B [%] | fold induction at 0.5 µM |
| --- | --- | --- |
| CNN=C(C(=O)NN(C)C(=S)c1ccccc1)C(=O)NN(C)C(=S)c1ccccc1 [Compound 71, N′1,N′3-dimethyl-2-(2-methylhydrazono)-N′1,N′3-di(phenylcarbonothioyl)-malonohydrazide] | 17.59 | 46.9 |
| CN(NC(=O)CC(=O)NN(C)/C(=N/S(C)(=O)=O)c1ccccc1)/C(=N/S(C)(=O)=O)c1ccccc1 [Compound 67, N′1,N′3-bis(methanesulfonimino(phenyl)methyl)-N′1,N′3-dimethylmalonohydrazide] | 0.75 | 1.87 |
| COP(=O)(CP(=O)(NN(C)C(=S)c1ccccc1)OC)NN(C)C(=S)c1ccccc1 (stereo not shown) [Compound 30, Dimethyl N,N′-methylenebis(N′-methyl-N′(phenylcarbonothioyl)-phosphonohydrazidate)] | 0.34 | 0.85 |
| CN(NC(=O)CS(=O)(=O)NN(C)C(=S)c1ccccc1)C(=S)c1ccccc1 [Compound 68, N′-Methyl-2-(2-methyl-2-(phenylcarbonothioyl)hydrazinyl)-2-oxo-N′-(phenylcarbonothioyl)ethanesulfonohydrazide] | 11.78 | 29.3 |
| COP(=O)(CP(=O)(NN(C)C(=O)c1ccccc1)OC)NN(C)C(=O)c1ccccc1 (stereo not shown) [Compound 33] | 0.14 | 0.35 |
